Results taken from US9827260B2, “Composition for buffered aminoalkyl glucosaminide phosphate compounds and its use for enhancing an immune response” (GlaxoSmithKline Biologicals s.a., priority 2013, dated 2017).

Assays:
[1] = Accelerated stability test (forced degradation), 14 days at 40° C; details: both buffers at pH=7.0, FIG. 5
Method: Buffers 1-7 of Table 1 were screened for stability at the concentrations shown in the Table using an accelerated stability test. The buffer compositions were maintained for 14 days at 40° C.

[2] = Sonication processing time to achieve a clear solution of CRX-601 buffered formulations; assay type: physicochemical
Method: (§1) CRX-601 was formulated in the 10 mM HEPES buffered at pH=7.0 at 2 mg/mL target concentration by weighing 3.99 mg of CRX-601 and adding 1.877 mL of 10 mM HEPES followed by ultrasonication in a water bath sonicator. After 25 minutes the solution was visibly clear, but the sonication was continued since the other CRX-601 formulations with the other buffers employed herein had not yet achieved similar visual appearance. This was done because the goal was to subject each CRX-601 buffered formulation to the same amount of processing energy.
as §1, with “pH=8.0” for “pH=7.0”
Each of the buffer solutions was then sonciated to reduce the particle size to allow for sterile filtration.

| SMILES | stability of the AGP in HEPES as compared against phosphate buffer [1] | sonication time until solution visibly clear ([2]; 2 mg/mL in 10 mM HEPES at pH=7.0, water bath sonicator) [min] | sonication time until solution visibly clear ([2]; 2 mg/mL in 10 mM HEPES at pH=8.0, water bath sonicator) [min] |
| --- | --- | --- | --- |
| CCCCCCCCCCC[C@H](CC(=O)N[C@H]1[C@H](OC[C@H](NC(=O)C[C@@H](CCCCCCCCCCC)OC(=O)CCCCCCCCC)C(=O)O)O[C@H](CO)[C@@H](OP(=O)(O)O)[C@@H]1OC(=O)C[C@@H](CCCCCCCCCCC)OC(=O)CCCCCCCCC)OC(=O)CCCCCCCCC [CRX-527] | enhanced stability | – | – |
| CCCCCCCCCCC[C@H](CC(=O)N[C@H]1[C@H](OC[C@H](NC(=O)C[C@@H](CCCCCCCCCCC)OCCCCCCCCCC)C(=O)O)O[C@H](CO)[C@@H](OP(=O)(O)O)[C@@H]1OC(=O)C[C@@H](CCCCCCCCCCC)OCCCCCCCCCC)OCCCCCCCCCC [CRX-601] | enhanced stability | 25 | 25 |
